Source: patent publication US20070128217A1 (priority 2003, published 2007)

How the values were obtained:
[1] = system: antibodies in sera from SARS patients (sera 1a, 1b, 2, 6, 37, 62, London, SARS-yellow, SARS-green); format: binding, human; parameters: Binding of serum 6 to linear peptides of protein X1 of SARS-CoV Urbani / Binding of serum 37 to linear peptides of protein X1 of SARS-CoV Urbani / Binding of serum 6 to looped/cyclic peptide (PEPSCAN-ELISA) / Binding of serum 37 to looped/cyclic peptide (PEPSCAN-ELISA) / Binding of serum 37 to looped/cyclic peptides of protein X1 of SARS-CoV Urbani / Binding of serum 6 to linear peptides of protein X2 / Binding of serum 37 to linear peptides of protein X2 / Binding of serum 37 to looped/cyclic peptides of protein X2 of SARS-CoV Urbani / Binding of serum 6 to linear peptides of protein M of SARS-CoV Urbani / Binding of serum 37 to linear peptides of protein M of SARS-CoV Urbani / Binding of serum 6 to looped/cyclic peptides of protein M of SARS-CoV Urbani / Binding of serum 37 to looped/cyclic peptides of protein M of SARS-CoV Urbani / Binding of serum 6 to linear peptides of protein X3 of SARS-CoV Urbani / Binding of serum 37 to linear peptides of protein X3 of SARS-CoV Urbani / Binding of serum 37 to looped/cyclic peptides of protein X3 of SARS-CoV Urbani / Binding of serum 6 to linear peptides of protein X4 of SARS-CoV Urbani / Binding of serum 37 to linear peptides of protein X4 of SARS-CoV Urbani / Binding of serum 37 to looped/cyclic peptides of protein X4 of SARS-CoV Urbani / Binding of serum 6 to linear peptides of protein X5 of SARS-CoV Urbani / Binding of serum 37 to linear peptides of protein X5 of SARS-CoV Urbani / Binding of serum 37 to looped/cyclic peptides of protein X5 of SARS-CoV Urbani / Binding of serum 6 to linear peptides of protein N of SARS-CoV Urbani / Binding of serum 37 to linear peptides of protein N of SARS-CoV Urbani / Binding of serum 6 to linear peptide (PEPSCAN-ELISA) / Binding of serum 1a to looped/cyclic peptides of protein N of SARS-CoV Urbani / Binding of serum 1b to looped/cyclic peptides of protein N of SARS-CoV Urbani / Binding of serum 2 to looped/cyclic peptides of protein N of SARS-CoV Urbani / Binding of serum 6 to looped/cyclic peptides of protein N of SARS-CoV Urbani / Binding of serum 37 to looped/cyclic peptides of protein N of SARS-CoV Urbani / Binding of serum 62 to looped/cyclic peptides of protein N of SARS-CoV Urbani / Binding of serum London to looped/cyclic peptides of protein N of SARS-CoV Urbani / Binding of serum SARS-green to looped/cyclic peptides of protein N of SARS-CoV Urbani: unit not given here
[2] = system: control sera (pooled serum of ten healthy LUMC hospital workers; commercial negative donor pooled serum from the Dutch bloodbank); format: binding, human; parameters: Binding of Control serum LUMC to linear peptides / Binding of Control serum Blood-bank to linear peptides / Binding of Control serum LUMC to looped peptides / Binding of Control Serum Blood-Bank to Looped peptides / Binding of Control serum LUMC to linear peptides of the protein M of SARS-CoV Urbani / Binding of Control serum Blood-bank to linear peptides of the protein M of SARS-CoV Urbani / Binding of Control serum LUMC to looped peptides of the protein M of SARS-CoV Urbani / Binding of Control Serum Blood-Bank to Looped peptides of the protein M of SARS-CoV Urbani: unit not given here
[3] = system: rabbit serum obtained by immunizing a rabbit with the SARS-CoV strain Frankfurt 1; format: binding; parameters: Binding of a rabbit serum to linear peptides / Binding of a rabbit serum to looped peptides / Rabbit serum linear peptides / Rabbit serum looped peptides / Binding of a rabbit serum to linear peptides of protein N of SARS-CoV Urbani (Rabbit serum linear peptides) / Binding of a rabbit serum to looped/cyclic peptides of protein N of SARS-CoV Urbani (Rabbit serum looped peptides): unit not given here
[4] = system: recombinant human anti-SARS-CoV antibody 03-018; format: binding; parameters: Binding of antibody 03-018 to linear peptides of the N protein of SARS-CoV Urbani / Binding of antibody 03-018 to looped/cyclic peptides of the N protein of SARS-CoV Urbani: unit not given here

LLDRLNQLESKVSGK
Binding of serum 1a to linear peptide (PEPSCAN-ELISA) [1]: 0.2
Binding of serum 1a to looped/cyclic peptides of protein N of SARS-CoV Urbani [1]: 0.2
Binding of serum 1b to linear peptide (PEPSCAN-ELISA) [1]: 0.1
Binding of serum 1b to looped/cyclic peptides of protein N of SARS-CoV Urbani [1]: 0.1
Binding of serum 2 to linear peptide (PEPSCAN-ELISA) [1]: 0.3
Binding of serum 2 to looped/cyclic peptides of protein N of SARS-CoV Urbani [1]: 0.2
Binding of serum 6 to linear peptide (PEPSCAN-ELISA) [1]: 0.2
Binding of serum 6 to looped/cyclic peptides of protein N of SARS-CoV Urbani [1]: 0.1
Binding of serum 37 to linear peptide (PEPSCAN-ELISA) [1]: 0.7
Binding of serum 37 to looped/cyclic peptides of protein N of SARS-CoV Urbani [1]: 0.4
Binding of serum 62 to linear peptide (PEPSCAN-ELISA) [1]: 0.6
Binding of serum 62 to looped/cyclic peptides of protein N of SARS-CoV Urbani [1]: 0.4
Binding of serum London to linear peptide (PEPSCAN-ELISA) [1]: 0.5
Binding of serum London to looped/cyclic peptides of protein N of SARS-CoV Urbani [1]: 0.3
Binding of serum SARS-green to linear peptide (PEPSCAN-ELISA) [1]: 0.4
Binding of serum SARS-green to looped/cyclic peptides of protein N of SARS-CoV Urbani [1]: 0.0
Binding of serum SARS-yellow to linear peptide (PEPSCAN-ELISA) [1]: 0.7
Binding of serum SARS-yellow to looped/cyclic peptides of protein N of SARS-CoV Urbani [1]: 0.1
Binding of Control Serum Blood-Bank to Looped peptides [2]: 0.3
Binding of Control serum Blood-bank to linear peptides [2]: 0.7
Binding of Control serum LUMC to linear peptides [2]: 0.6
Binding of Control serum LUMC to looped peptides [2]: 0.2
Binding of a rabbit serum to linear peptides of protein N of SARS-CoV Urbani (Rabbit serum linear peptides) [3]: 0.6
Binding of a rabbit serum to looped/cyclic peptides of protein N of SARS-CoV Urbani (Rabbit serum looped peptides) [3]: 0.1
Binding of antibody 03-018 to linear peptides of the N protein of SARS-CoV Urbani [4]: 0.1
Binding of antibody 03-018 to looped/cyclic peptides of the N protein of SARS-CoV Urbani [4]: 0.2

LLLDRLNQLESKVSG
Binding of serum 1a to linear peptide (PEPSCAN-ELISA) [1]: 0.3
Binding of serum 1a to looped/cyclic peptides of protein N of SARS-CoV Urbani [1]: 0.3
Binding of serum 1b to linear peptide (PEPSCAN-ELISA) [1]: 0.2
Binding of serum 1b to looped/cyclic peptides of protein N of SARS-CoV Urbani [1]: 0.1
Binding of serum 2 to linear peptide (PEPSCAN-ELISA) [1]: 0.4
Binding of serum 2 to looped/cyclic peptides of protein N of SARS-CoV Urbani [1]: 0.4
Binding of serum 6 to linear peptide (PEPSCAN-ELISA) [1]: 0.2
Binding of serum 6 to looped/cyclic peptides of protein N of SARS-CoV Urbani [1]: 0.1
Binding of serum 37 to linear peptide (PEPSCAN-ELISA) [1]: 0.8
Binding of serum 37 to looped/cyclic peptides of protein N of SARS-CoV Urbani [1]: 0.5
Binding of serum 62 to linear peptide (PEPSCAN-ELISA) [1]: 0.6
Binding of serum 62 to looped/cyclic peptides of protein N of SARS-CoV Urbani [1]: 0.3
Binding of serum London to linear peptide (PEPSCAN-ELISA) [1]: 0.9
Binding of serum London to looped/cyclic peptides of protein N of SARS-CoV Urbani [1]: 0.3
Binding of serum SARS-green to linear peptide (PEPSCAN-ELISA) [1]: 1.1
Binding of serum SARS-green to looped/cyclic peptides of protein N of SARS-CoV Urbani [1]: 0.6
Binding of serum SARS-yellow to linear peptide (PEPSCAN-ELISA) [1]: 0.7
Binding of serum SARS-yellow to looped/cyclic peptides of protein N of SARS-CoV Urbani [1]: 0.2
Binding of Control Serum Blood-Bank to Looped peptides [2]: 0.5
Binding of Control serum Blood-bank to linear peptides [2]: 0.8
Binding of Control serum LUMC to linear peptides [2]: 0.9
Binding of Control serum LUMC to looped peptides [2]: 0.5
Binding of a rabbit serum to linear peptides of protein N of SARS-CoV Urbani (Rabbit serum linear peptides) [3]: 0.2
Binding of a rabbit serum to looped/cyclic peptides of protein N of SARS-CoV Urbani (Rabbit serum looped peptides) [3]: 0.2
Binding of antibody 03-018 to linear peptides of the N protein of SARS-CoV Urbani [4]: 0.1
Binding of antibody 03-018 to looped/cyclic peptides of the N protein of SARS-CoV Urbani [4]: 0.2

LLPAADMDDFSRQLQ
Binding of serum 1a to linear peptides of protein N of SARS-CoV Urbani [1]: 0.3
Binding of serum 1a to looped/cyclic peptides of protein N of SARS-CoV Urbani [1]: 0.3
Binding of serum 1b to linear peptides of protein N of SARS-CoV Urbani [1]: 0.2
Binding of serum 1b to looped/cyclic peptides of protein N of SARS-CoV Urbani [1]: 0.1
Binding of serum 2 to linear peptides of protein N of SARS-CoV Urbani [1]: 0.3
Binding of serum 2 to looped/cyclic peptides of protein N of SARS-CoV Urbani [1]: 0.4
Binding of serum 6 to linear peptides of protein N of SARS-CoV Urbani [1]: 0.3
Binding of serum 6 to looped/cyclic peptides of protein N of SARS-CoV Urbani [1]: 0.1
Binding of serum 37 to linear peptides of protein N of SARS-CoV Urbani [1]: 0.8
Binding of serum 37 to looped/cyclic peptides of protein N of SARS-CoV Urbani [1]: 0.5
Binding of serum 62 to linear peptides of protein N of SARS-CoV Urbani [1]: 0.6
Binding of serum 62 to looped/cyclic peptides of protein N of SARS-CoV Urbani [1]: 0.2
Binding of serum London to linear peptides of protein N of SARS-CoV Urbani [1]: 0.6
Binding of serum London to looped/cyclic peptides of protein N of SARS-CoV Urbani [1]: 0.3
Binding of serum SARS-green to linear peptides of protein N of SARS-CoV Urbani [1]: 0.4
Binding of serum SARS-green to looped/cyclic peptides of protein N of SARS-CoV Urbani [1]: 0.2
Binding of serum SARS-yellow to linear peptides of protein N of SARS-CoV Urbani [1]: 0.6
Binding of serum SARS-yellow to looped/cyclic peptides of protein N of SARS-CoV Urbani [1]: 0.3
Control Serum Blood-Bank Looped peptides [2]: 0.4
Control serum Blood-bank linear peptides [2]: 0.7
Control serum LUMC linear peptides [2]: 0.6
Control serum LUMC looped peptides [2]: 0.4
Binding of a rabbit serum to linear peptides of protein N of SARS-CoV Urbani (Rabbit serum linear peptides) [3]: 0.1
Binding of a rabbit serum to looped/cyclic peptides of protein N of SARS-CoV Urbani (Rabbit serum looped peptides) [3]: 0.2
Binding of antibody 03-018 to linear peptides of the N protein of SARS-CoV Urbani [4]: 0.1
Binding of antibody 03-018 to looped/cyclic peptides of the N protein of SARS-CoV Urbani [4]: 0.2
